Test results: patent US20190099456A1, “COMPOSITION FOR PROMOTING INTERFERON LAMBDA PRODUCTION AND PRODUCTION METHOD THEREFOR” (KIKKOMAN CORPORATION, priority 2016, published 2019)

How the values were obtained:
BDCA3 DC [1] = assay: Test of promoting cytokine production by BDCA3 DC (cytometric beads array); assay type: cell-based, human; conditions: lactic acid bacteria count/DC count=100
Protocol: Poly IC or the lactic acid bacteria suspension prepared by using strain KK221 according to Example 1, and BDCA3 DC were prepared and co-cultured so that lactic acid bacteria count/DC count=100, and the measurement of the activity of promoting production of various cytokines was carried out.
Note that each of TNFα, IL-10, IL-1β, IL-6, and IL-12p70 was measured by using cytometric beadsarray (CBA; Becton, Dickinson and Company).

BDCA3 DC [2] = assay: Test of promoting interferon λ3 production by BDCA3 DC co-cultured with lactic acid bacteria suspension; assay type: cell-based, human; conditions: 10 μM chloroquine, 24 hours
Protocol: First, an MRS medium containing 10% (w/v) salt was inoculated with strain KK221 so that a concentration became 1×10^7 cells/ml, and therefore a stock solution of lactic acid bacteria was prepared. The stock solution of lactic acid bacteria was statically cultured at 30° C. for 48 to 72 hours, and then subjected to a boiling and pasteurization treatment at 95° C. for 10 minutes, and therefore a pasteurization-treated culture solution was prepared. […]
Activity of promoting interferon λ production by the prepared lactic acid bacteria suspension was evaluated as follows by using dendritic cells collected and prepared from the peripheral blood of a non-virus infected healthy subject. […]
The number of cells of each isolated DC was measured, and a cell stock solution was prepared using an IMDM medium (GIBCO) containing 25 mM D-glucose, 25 mM HEPES, and […] so that a concentration became 5×10^4 cells/ml. […]
Using the recovered culture supernatant, interferon λ3 was measured by a chemiluminescent enzyme immunoassay method according to a method described in a document of Sugiyama, et al. [Sugiyama M, et al. Hepatol Res. 42 (11): 1089-1099, 2012]. […]

## Poly IC
BDCA3 DC [1]
  production of various cytokines (TNFα, IL-10, IL-1β, IL-6, IL-12p70, interferon α, interferon λ) by BDCA3 DC: nonspecifically promoted production of TNFα, interferon α, IL-6, and the like in addition to interferon λ (IL28B)
BDCA3 DC [2]
  activity of promoting interferon λ production according to addition of chloroquine: deteriorated
